Reference: PubChem BioAssay (NCI)
Where “and” joins values, the source holds several entries; their conditions need not be identical. Identical values can stand only once.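 Cultured in 96-well plates, cells were exposed to test compound for 48 hours across five concentrations. GI50: concentration for 50% inhibition of growth. Definition used: TGI = concentration required for complete inhibition of growth.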

How the values were obtained:
Test in all cases: inhibition of tumour cell growth, NCI panel, 48 h
SF-295 CNS = tested on: SF-295 CNS
MALME-3M melanoma = tested on: MALME-3M melanoma
UACC-257 melanoma = tested on: UACC-257 melanoma
OVCAR-5 ovarian = tested on: OVCAR-5 ovarian
SK-MEL-28 melanoma = tested on: SK-MEL-28 melanoma
LOX IMVI melanoma = tested on: LOX IMVI melanoma
RXF 393 renal = tested on: RXF 393 renal
SW-620 colon = tested on: SW-620 colon
MCF7 breast = tested on: MCF7 breast
MDA-MB-231 breast = tested on: MDA-MB-231 breast

| SMILES | TGI (SF-295 CNS) | TGI (MALME-3M melanoma) | TGI (UACC-257 melanoma) | TGI (OVCAR-5 ovarian) | TGI (SK-MEL-28 melanoma) | TGI (LOX IMVI melanoma) | TGI (RXF 393 renal) | TGI (SW-620 colon) | GI50 (MCF7 breast) | TGI (MCF7 breast) | GI50 (UACC-257 melanoma) | GI50 (MDA-MB-231 breast) | TGI (MDA-MB-231 breast) | GI50 (OVCAR-5 ovarian) | GI50 (SK-MEL-28 melanoma) | GI50 (LOX IMVI melanoma) | GI50 (SW-620 colon) | GI50 (SF-295 CNS) | GI50 (RXF 393 renal) |
| --- | --- | --- | --- | --- | --- | --- | --- | --- | --- | --- | --- | --- | --- | --- | --- | --- | --- | --- | --- |
| CC(NC1CCCC[C@@H]1O)c1ccccc1 (stereo partly drawn) | > 100 µM | > 100 µM | > 100 µM | > 100 µM | > 100 µM | > 100 µM | > 100 µM | > 100 µM | – | – | – | – | – | – | – | – | – | – | – |
| O=C1c2ccccc2-c2c1c1ccccc1c(=O)n2CCNCCNCCNCCNCCn1c2c(c3ccccc3c1=O)C(=O)c1ccccc1-2 | – | – | 5.73 µM | > 100 µM | > 100 µM | 0.0703 µM | – | 1.17 µM | 0.0501 µM | 1.71 µM | 0.716 µM | 0.0846 µM | 1.6 µM | > 100 µM | 1.95 µM | 0.0182 µM | 0.0405 µM | – | – |
| Cc1cc(O)c2c(c1)OC1(C)CCC3C(C)(C)CCCC34COC2C14 (stereo not drawn) | 28.3 µM | 26.3 µM | 28.8 µM | 29.5 µM | – | 27.3 µM | – | 30 µM | – | – | – | – | – | – | – | – | – | – | – |
| COc1ccc(-c2cn3ccnc3c(-c3ccc(Cl)cc3)n2)cc1 | 85.3 µM | – | 48 µM | > 100 µM | > 100 µM | > 100 µM | > 100 µM | > 100 µM | 5.56 µM | > 100 µM | 6.81 µM | 4.13 µM | 55.9 µM | 9.52 µM | 5.37 µM | 7.95 µM | 4.51 µM | 23.1 µM | 28.2 µM |
| CNC(=O)NCCCCC(NC(C)=O)C(=O)NCc1ccccc1 (stereo not drawn) | > 100 µM | > 100 µM | > 100 µM | > 100 µM | > 100 µM | > 100 µM | > 100 µM | > 100 µM | – | – | – | – | – | – | – | – | – | – | – |
| CCNC(=O)COc1ccc(Cl)c(C)c1 | > 100 µM | > 100 µM | > 100 µM | > 100 µM | > 100 µM | > 100 µM | > 100 µM | > 100 µM | – | – | – | – | – | – | – | – | – | – | – |
| CCOc1ccc2cc(-c3nn(CC4CCN(C)CC4)c4ncnc(N)c34)ccc2c1 | 29.2 µM | – | 30.2 µM | 32.2 µM | 10.1 µM | 59 µM | 18.6 µM | 31.7 µM | 13.4 µM | 37.1 µM | 14.7 µM | 4.52 µM | 18.4 µM | 14.4 µM | 3.12 µM | 19.4 µM | 15.7 µM | 14.5 µM | 4.12 µM |
| Nc1ccccc1SC(/C=C/NNC1=NC(c2ccccc2)C(c2ccccc2)=NN1)c1ccccc1 (stereo not drawn) | 24.5 µM | 30.1 µM | 28.1 µM | 37.1 µM | 27 µM | 27.1 µM | 27.1 µM | 29.1 µM | – | – | – | – | – | – | – | – | – | – | – |
| OC(Cc1cccc2ccccc12)CN1CCC(c2ccccc2)CC1 (stereo not drawn) | 27.9 µM | – | 18.8 µM | 27.7 µM | 26.8 µM | 29.5 µM | 23 µM | 29.9 µM | – | 32.7 µM | – | – | 28.4 µM | – | – | – | – | – | – |
| CN1C2C=CC(=O)C1C(C#N)C2 (stereo not drawn) | > 100 µM | 51 µM and > 100 µM | – | 15.7 µM and > 100 µM | > 100 µM | – | 64.3 µM and > 100 µM | > 100 µM | – | > 100 µM | – | > 100 µM | > 100 µM | – | 30 µM and > 100 µM | – | – | – | 23.9 µM and 57.7 µM |
